Like-named read-outs stand apart in the source and are kept apart here.
Test system: SJSA-1 cells
Experiment: Protocol B: SJSA-1 CellTiter-Glo luminescent cell viability assay
[1] = Homo sapiens, SJSA-1, read-out: SJSA1 IC50 (μM) (Protocol B), SJSA-1, Protocol B
[2] = read-out: SJSA1 IC50 (μM) (Protocol B), SJSA-1, Protocol B
[3] = read-out: SJSA1 IC50, Protocol B, SJSA-1

Experimental: Protocol B: SJSA-1 and SN40R2 Assays
The CellTiter-Glo® Luminescent Cell Viability Assay is a homogeneous method to determine the number of viable cells in culture based on quantitation of the ATP present, which signals the presence of metabolically active cells. […] 100 μl of CTG reagent (Promega #G7573) was added to all wells and luminescence was measured on the topcount. The EC50 values were determined from a sigmoidal 4 parameter curve fit using XLfit in conjunction with Activity Base (IDBS; Guildford, Surrey, UK).

| SMILES | IC50 [1] [µM] | IC50 [2] [µM] | also measured |
| --- | --- | --- | --- |
| CC(O)(c1cc(F)c2c(c1)C(=O)N(Cc1ncc(Cl)cn1)[C@@]2(OCC1(O)CC1)c1ccc(Cl)cc1)C1CCS(=O)(=O)CC1 (single isomer, unassigned) [Example 397] | 2.5 | – | – |
| CO[C@]1(c2ccc(Cl)cc2)c2c(F)cc(C(C)(O)C3CN(C(=O)N(C)C)C3)cc2C(=O)N1Cc1ccc(C#N)cn1 (stereo partly drawn) [Example 393, 3-{1-[(1R)-1-(4-chlorophenyl)-2-[(5-cyanopyridin-2-yl)methyl]-7-fluoro-1-methoxy-3-oxo-2,3-dihydro-1H-isoindol-5-yl]-1-hydroxyethyl}-N,N-dimethylazetidine-1-carboxamide] | – | – | IC50 (Homo sapiens, SJSA-1, read-out: SJSA1 IC50 (μM), Protocol B, SJSA-1): 0.79 µM |
| CO[C@]1(c2ccc(Cl)cc2)c2c(F)cc(C(C)(O)c3ccn(C)n3)cc2C(=O)N1Cc1ccc(Cl)cn1 (single isomer, unassigned) [Example 189] | – | 1 | – |
| Cc1nc(C(C)(O)c2cc(F)c3c(c2)C(=O)N(Cc2ccc(Cl)cn2)[C@@]3(OCC2(O)CC2)c2ccc(Cl)cc2)cn1C (single isomer, unassigned) [Example 324] | – | 2.2 | – |
| CO[C@]1(c2ccc(Cl)cc2)c2c(F)cc(C(C)(O)c3cn(C)c(C)n3)cc2C(=O)N1Cc1ccc(Cl)cn1 (stereo partly drawn) [Example 161, (3R)-3-(4-Chlorophenyl)-2-[(5-chloropyridin-2-yl)methyl]-6-[1-(1,2-dimethyl-1H-imidazol-4-yl)-1-hydroxyethyl]-4-fluoro-3-methoxy-2,3-dihydro-1H-isoindol-1-one] | – | 4.3 | – |
| CC(O)(c1cc(F)c2c(c1)C(=O)N(Cc1ccc(Cl)cn1)[C@@]2(OCCO)c1ccc(Cl)cc1)C1CCS(=O)(=O)CC1 (single isomer, unassigned) [Example 314] | – | – | SJSA1 (Protocol B) % at stated concentration (SJSA-1, Protocol B, at 10 μM): 66% at 10 |
| CC(O)(c1cc(F)c2c(c1)C(=O)N(Cc1ccc(Cl)cn1)[C@@]2(OCC1(C(N)=O)CC1)c1ccc(Cl)cc1)c1cscn1 (single isomer, unassigned) [Example 193] | 0.14 | – | – |
| Cn1cnc(C(C)(O)c2cc(F)c3c(c2)C(=O)N(Cc2ccc(Cl)cn2)[C@@]3(OCC2(O)CC2)c2ccc(Cl)cc2)c1 (single isomer, unassigned) [Example 195] | – | 0.61 | – |
| CO[C@]1(c2ccc(Cl)cc2)c2c(F)cc(C(C)(O)C3CCS(=O)(=O)CC3)cc2C(=O)N1Cc1ccc(Cl)cn1 (single isomer, unassigned) [Example 311] | 0.25 | – | – |
| CC(O)(c1cc(F)c2c(c1)C(=O)N(Cc1ncc(Cl)cn1)[C@@]2(OCC1(C(N)=O)CC1)c1ccc(Cl)cc1)C1CCC1 (single isomer, unassigned) [Example 403] | – | 1.2 | – |
| CO[C@]1(c2ccc(Cl)cc2)c2c(F)cc(C(C)(O)c3ncc[nH]3)cc2C(=O)N1Cc1ccc(Cl)cn1 (single isomer, unassigned) [Example 164] | – | 2.2 | – |
| CC(O)(c1cc(F)c2c(c1)C(=O)N(Cc1ccc(Cl)cn1)[C@@]2(OCC1(O)CC1)c1ccc(Cl)cc1)c1ncccn1 (single isomer, unassigned) [Example 396] | 0.28 | – | – |
| CC(O)(c1cc(F)c2c(c1)C(=O)N(Cc1ccc(C#N)cn1)[C@@]2(OCCO)c1ccc(Cl)cc1)C1CCC1 (single isomer, unassigned) [Example 405] | – | 0.63 | – |
| Cn1cc(C(C)(O)c2cc(F)c3c(c2)C(=O)N(Cc2ncc(Cl)cn2)[C@@]3(OCC2(C(N)=O)CC2)c2ccc(Cl)cc2)cn1 (stereo partly drawn) [Example 214, 1-({[(1R)-1-(4-chlorophenyl)-2-[(5-chloropyrimidin-2-yl)methyl]-7-fluoro-5-[1-hydroxy-1-(1-methyl-1H-pyrazol-4-yl)ethyl]-3-oxo-2,3-dihydro-1H-isoindol-1-yl]oxy}methyl)cyclopropane-1-carboxamide] | 0.22 | – | – |
| COc1ccc(CN2C(=O)c3cc(C(C)(O)c4cnn(C)c4)cc(F)c3[C@]2(OCC2(C(N)=O)CC2)c2ccc(Cl)cc2)cn1 (stereo partly drawn) [Example 216, 1-({[(1R)-1-(4-chlorophenyl)-7-fluoro-5-[1-hydroxy-1-(1-methyl-1H-pyrazol-4-yl)ethyl]-2-[(6-methoxypyridin-3-yl)methyl]-3-oxo-2,3-dihydro-1H-isoindol-1-yl]oxy}methyl)cyclopropane-1-carboxamide] | 0.28 | – | – |
| CCn1cc(C(C)(O)c2cc(F)c3c(c2)C(=O)N(Cc2ccc(Cl)cn2)[C@@]3(OCC2(O)CC2)c2ccc(Cl)cc2)cn1 (single isomer, unassigned) [Example 183] | – | 0.43 | – |
| CC(O)(c1cc(F)c2c(c1)C(=O)N(Cc1ncc(Cl)cn1)[C@@]2(O[C@H]1C[C@@H](O)C1)c1ccc(Cl)cc1)[C@H]1CC[C@H](O)CC1 (stereo partly shown) [Example 496] | – | – | IC50 [3]: 1.8 µM |
| CO[C@]1(c2ccc(Cl)cc2)c2c(F)cc(C(C)(O)c3nccs3)cc2C(=O)N1Cc1ccc(Cl)cn1 (single isomer, unassigned) [Example 166] | – | 3.8 | – |
| CO[C@]1(c2ccc(Cl)cc2)c2c(F)cc(C(C)(O)C3CN(C(C)=O)C3)cc2C(=O)N1Cc1ccc(Cl)cn1 (stereo partly drawn) [Example 389, (3R)-6-[1-(1-acetylazetidin-3-yl)-1-hydroxyethyl]-3-(4-chlorophenyl)-2-[(5-chloropyridin-2-yl)methyl]-4-fluoro-3-methoxy-2,3-dihydro-1H-isoindol-1-one] | – | 4.2 | – |

| SMILES | IC50 [1] [µM] | IC50 [2] [µM] | also measured |
| --- | --- | --- | --- |
| Cn1cc(C(C)(O)c2cc(F)c3c(c2)C(=O)N(Cc2ccc(Cl)cn2)[C@@]3(OCC2(C#N)CC2)c2ccc(Cl)cc2)cn1 (single isomer, unassigned) [Example 202] | – | 0.11 | – |
| CO[C@]1(c2ccc(Cl)cc2)c2c(F)cc(C(C)(O)C3CN(C(C)=O)C3)cc2C(=O)N1Cc1ccc(Cl)cn1 (stereo partly drawn) [Example 390, (3R)-6-[1-(1-acetylazetidin-3-yl)-1-hydroxyethyl]-3-(4-chlorophenyl)-2-[(5-chloropyridin-2-yl)methyl]-4-fluoro-3-methoxy-2,3-dihydro-1H-isoindol-1-one] | – | 0.63 | – |
| CO[C@]1(c2ccc(Cl)cc2)c2c(F)cc(C(C)(O)C3CCN(C(=O)CN(C)C)CC3)cc2C(=O)N1Cc1ccc(Cl)cn1 (single isomer, unassigned) [Example 299] | – | 2 | – |
| CN(C)CC(C)(O)c1cc(F)c2c(c1)C(=O)N(Cc1ccc(Cl)cn1)[C@@]2(O[C@H]1CCOC1)c1ccc(Cl)cc1 (single isomer, unassigned) [Example 138] | 0.56 | – | – |
| CO[C@]1(c2ccc(Cl)cc2)c2c(F)cc(C(C)(O)c3ccn(C)n3)cc2C(=O)N1Cc1ccc(Cl)cn1 (single isomer, unassigned) [Example 190] | – | 5 | – |
| CCC(O)(CN1CCNCC1)c1cc(F)c2c(c1)C(=O)N(Cc1ncc(Cl)cn1)[C@@]2(OCC1(C#N)CC1)c1ccc(Cl)cc1 (single isomer, unassigned) [Example 537] | – | – | IC50 [3]: 0.76 µM |
| CO[C@]1(c2ccc(Cl)cc2)c2c(F)cc(C(C)(O)c3cn(C)nn3)cc2C(=O)N1Cc1ccc(Cl)cn1 (single isomer, unassigned) [Example 187] | 0.89 | – | – |
| Cc1nnc(C(C)(O)c2cc(F)c3c(c2)C(=O)N(Cc2ccc(Cl)cn2)[C@@]3(OCC2(O)CC2)c2ccc(Cl)cc2)o1 (single isomer, unassigned) [Example 186] | – | 0.42 | – |
| CCOCC(C)(O)c1cc(F)c2c(c1)C(=O)N(Cc1ccc(Cl)cn1)[C@@]2(O[C@H]1CCOC1)c1ccc(Cl)cc1 (single isomer, unassigned) [Example 141] | – | 1.8 | – |
| CO[C@]1(c2ccc(Cl)cc2)c2c(F)cc(C(C)(O)c3cnn(C4CN(C(C)=O)C4)c3)cc2C(=O)N1Cc1ccc(Cl)cn1 (stereo partly drawn) [Example 182, (3R)-6-{1-[1-(1-Acetylazetidin-3-yl)-1H-pyrazol-4-yl]-1-hydroxyethyl}-3-(4-chlorophenyl)-2-[(5-chloropyridin-2-yl)methyl]-4-fluoro-3-methoxy-2,3-dihydro-1H-isoindol-1-one] | 0.88 | – | – |
| Cn1cc(C(C)(O)c2cc(F)c3c(c2)C(=O)N(Cc2ncc(Cl)cn2)[C@@]3(OCC2(O)CC2)c2ccc(Cl)cc2)cn1 (single isomer, unassigned) [Example 204] | – | 0.94 | – |
| Cn1cc(C(C)(O)c2cc(F)c3c(c2)C(=O)N(Cc2ccc(Cl)cn2)[C@@]3(OCC2(O)CC2)c2ccc(Cl)cc2)cn1 (single isomer, unassigned) [Example 199] | – | 0.83 | – |
| CCOCC(C)(O)c1cc(F)c2c(c1)C(=O)N(Cc1ccc(Cl)cn1)[C@@]2(O[C@H]1CCOC1)c1ccc(Cl)cc1 (single isomer, unassigned) [Example 140] | – | 0.23 | – |
| CC(O)(CN1CCCC1)c1cc(F)c2c(c1)C(=O)N(Cc1ccc(C#N)cn1)[C@@]2(OCC1(C#N)CC1)c1ccc(Cl)cc1 (single isomer, unassigned) [Example 276] | – | 2.5 | – |
| CC(O)(c1cc(F)c2c(c1)C(=O)N(Cc1ccc(C#N)cn1)[C@@]2(OCC1(C#N)CC1)c1ccc(Cl)cc1)C1CCOCC1 (stereo partly drawn) [Example 282, 6-{[(1R)-1-(4-chlorophenyl)-1-[(1-cyanocyclopropyl)methoxy]-7-fluoro-5-[1-hydroxy-1-(oxan-4-yl)ethyl]-3-oxo-2,3-dihydro-1H-isoindol-2-yl]methyl}pyridine-3-carbonitrile] | 0.061 | – | – |
| Cn1cc(C(C)(O)c2cc(F)c3c(c2)C(=O)N(Cc2ccc(C#N)cn2)[C@@]3(O[C@H]2C[C@@H](O)C2)c2ccc(Cl)cc2)cn1 (single isomer, unassigned) [Example 355, 6-{[1-(4-chlorophenyl)-7-fluoro-5-[1-hydroxy-1-(1-methyl-1H-pyrazol-4-yl)ethyl]-3-oxo-1-[cis-3-hydroxycyclobutoxy]-2,3-dihydro-1H-isoindol-2-yl]methyl}pyridine-3-carbonitrile] | – | 4.7 | – |
| Cn1cc(C(C)(O)c2cc(F)c3c(c2)C(=O)N(Cc2ccc(Cl)cn2)[C@@]3(OCCO)c2ccc(Cl)cc2)cn1 (stereo partly drawn) [Example 213, (3R)-3-(4-chlorophenyl)-2-[(5-chloropyridin-2-yl)methyl]-4-fluoro-6-[1-hydroxy-1-(1-methyl-1H-pyrazol-4-yl)ethyl]-3-(2-hydroxyethoxy)-2,3-dihydro-1H-isoindol-1-one] | 0.25 | – | – |
| CCn1cc(C(C)(O)c2cc(F)c3c(c2)C(=O)N(Cc2ccc(Cl)cn2)[C@@]3(OCC2(C(N)=O)CC2)c2ccc(Cl)cc2)cn1 (single isomer, unassigned) [Example 180] | 0.16 | – | – |

Reference: patent US11236047B2 (ASTEX THERAPEUTICS LIMITED, priority 2017, dated 2022)
